According to patent publication US20060276416A1, “Methods and compositions for treating flushing and drug induced weight gain” (Sirtris Pharmaceuticals, Inc., priority 2005, published 2006):

Assays:
[1] = test system: Human 293; test: Survival of 293 cells (Coulter counter); type: cell-based; settings: 50 micromolar
From the text: The number of live cells each time point was counted using a Coulter counter.

[2] = target: T1, recombinant human SIRT1 (Homo sapiens, UniProt Q96EB6); test: SIRT1 fluorescent deacetylation assay (p53-382 acetylated peptide); type: biochemical
T1 sequence (Q96EB6 1-747): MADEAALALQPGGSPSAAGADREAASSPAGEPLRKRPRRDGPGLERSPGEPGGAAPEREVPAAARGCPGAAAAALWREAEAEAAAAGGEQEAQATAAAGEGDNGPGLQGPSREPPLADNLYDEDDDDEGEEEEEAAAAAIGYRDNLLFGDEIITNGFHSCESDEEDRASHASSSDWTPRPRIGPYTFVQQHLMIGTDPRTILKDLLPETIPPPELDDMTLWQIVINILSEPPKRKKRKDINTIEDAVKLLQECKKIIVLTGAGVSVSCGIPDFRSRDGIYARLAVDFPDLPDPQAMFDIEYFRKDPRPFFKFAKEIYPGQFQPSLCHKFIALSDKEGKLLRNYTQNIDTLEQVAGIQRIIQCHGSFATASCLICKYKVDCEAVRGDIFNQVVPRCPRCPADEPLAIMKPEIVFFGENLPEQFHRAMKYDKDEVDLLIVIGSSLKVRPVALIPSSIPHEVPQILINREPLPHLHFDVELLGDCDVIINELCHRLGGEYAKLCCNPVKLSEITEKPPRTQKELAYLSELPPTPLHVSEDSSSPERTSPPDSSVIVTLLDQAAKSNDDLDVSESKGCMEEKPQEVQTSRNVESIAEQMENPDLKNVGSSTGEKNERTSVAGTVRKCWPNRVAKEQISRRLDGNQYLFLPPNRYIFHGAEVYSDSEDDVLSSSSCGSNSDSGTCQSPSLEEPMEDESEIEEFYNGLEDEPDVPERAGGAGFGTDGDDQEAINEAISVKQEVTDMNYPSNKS
Method: To identify compounds that modulate SIRT1 activity, a number of small molecule libraries were screened using a fluorescent deacetylation assay in 96-well plates^26. The substrate used in the assay was a fluorogenic peptide based on the sequence encompassing the p53-K382 acetylation site, a known target of SIRT1 in vivo^20,21,27. […] The small molecule libraries included analogues of nicotinamide, ε-acetyl lysine, NAD^+, nucleotides, nucleotide analogues and purinergic ligands.
From 0.1 to 1 μg of SIRT1 and 1.5 μg of Sir2 were used per deacetylation assay (in 50 μl total reaction) as previously described^26. SIRT1 assays and certain of those for Sir2 employed the p53-382 acetylated substrate (‘Fluor de Lys-SIRT1’, BIOMOL) rather than FdL.
Themed compound libraries (BIOMOL) were used for primary and secondary screening. Most polyphenol compounds were dissolved at 10 mM in dimethylsulfoxide (DMSO) on the day of the assay. For water soluble compounds and negative controls, 1% v/v DMSO was added to the assay. In vitro fluorescence assay results were read in white ½-volume 96-well microplates (Corning Costar 3693) with a CytoFluor™ II fluorescence plate reader (PerSeptive Biosystems, Ex. 360 nm, Em. 460 nm, gain=85). […] Unless otherwise indicated all initial rate measurements were means of three or more replicates, obtained with single incubation times, at which point 5% or less of the substrate initially present had been deacetylated. Calculation of net fluorescence increases included subtraction of a blank value, which in the case of Sir2 was obtained by omitting the enzyme from the reaction and in the case of SIRT1 by adding an inhibitor (200 μM suramin or 1 mM nicotinamide) to the reaction prior to the acetylated substrate. A number of the polyphenols partially quenched the fluorescence produced in the assay and correction factors were obtained by determining the fluorescence increase due to a 3 μM spike of an FdL deacetylated standard (BIOMOL, catalog number KI-142). All error bars represent the standard error of the mean.
All SIRT1 rate measurements used in the calculation of “Ratio to Control Rate” were obtained with 25 μM NAD^+ and 25 μM p53-382 acetylated peptide substrate were performed as described above and in K. T. Howitz et al. Nature (2003) 425: 191. All ratio data were calculated from experiments in which the total deacetylation in the control reaction was 0.25-1.25 μM peptide or 1-5% of the initial concentration of acetylated peptide.

[3] = test system: C. elegans; test: C. elegans fat accumulation, Nile Red staining; type: in vivo; settings: 100 μM
Method: Fat accumulation was visualized with Nile Red staining, as described further below and in Ashrafi K, et al. Nature 421:268-27 (2003).
Synchronized starved L1 worms were grown in the presence of Nile Red. Strains were grown on NGM plates at 25° C. for approximately 48 hours until the young adult stage was reached. 20-30 young adult worms were then washed 2× with M9 buffer and transferred to new NGM/Nile red experimental plates that contained either OP50 or HTT5 E. coli carrying the L4440 RNAi control vector.
Young adults were transferred to plates containing the appropriate vector, Nile Red stain and drug then maintained at 25° C.
Nile Red: Nile Red Powder (Sigma #N-3013) was dissolved in acetone at 500 μg/ml, diluted in 1× Phosphate Buffered Saline (PBS) including appropriate drug and applied to surface of Nematode Growth Media (NGM) plates previously seeded with OP50 or RNAi bacteria, at a final concentration of 0.05 μg/ml. Fat content was monitored and recorded by fluorescence microscopy.

[4] = test system: HeLa S3 cells; test: Cellular deacetylase assay (TSA-insensitive FdL deacetylation); type: cell-based, human; settings: 500 μM compound, 200 μM FdL, 1 μM TSA, 1 hour
Method: FdL (200 μM) is added to growth media and cells incubated for 1-3 hours to allow FdL to enter the cells and the lysine-deacetylated product (deAc-FdL) to accumulate intracellularly. Cells are lysed with detergent in the presence of 1 μM TSA, 1 mM nicotinamide. Addition of the non-cell-permeable Developer (BIOMOL) releases a fluorophor, specifically from deAc-FdL. b, SIRT1 activating polyphenols can stimulate TSA-insensitive, FdL deacetylation by HeLa S3 cells. Cells were grown adherently in DMEM/10% FCS and treated for 1 hour with 200 μM FdL, 1 μM TSA and either vehicle (0.5% final DMSO, Control) or 500 μM of the indicated compound. Intracellular accumulation of deAc-FdL was then determined as described briefly in a. […] Lysates were prepared and analyzed as above. […]
Themed compound libraries (BIOMOL) were used for primary and secondary screening. […] In vitro fluorescence assay results were read in white ½-volume 96-well microplates (Corning Costar 3693) with a CytoFluor™ II fluorescence plate reader (PerSeptive Biosystems, Ex. 360 nm, Em. 460 nm, gain=85). HeLa cells were grown and the cellular deacetylation assays were performed and read, as above, but in full-volume 96-well microplates (Corning Costar 3595). […]

SMILES	Toxicity on 293 cells (in words) [1]	v1/v2 (rate for pure SIRT1/BML-230 divided by that for pure SIRT1/resveratrol) ([2]; R at 500 μM)	Stimulated SIRT1 activity compared with resveratrol ([2]; all concentrations tested, 25 μM NAD+ and p53-382 peptide, 20 minutes)	Dissociation constant of SIRT1 complex compared with SIRT1/resveratrol ([2]; inferred from two state model)	Fat staining ([3]; 24 hours, control 1% v/v DMSO)	Effect on the cellular (TSA-insensitive) deacetylation signal [4]	Fat mobilization ([3]; 48 hours)
CSc1ccc(/C=C/c2cc(O)cc(O)c2)cc1 [BML-230, 3,5-dihydroxy-4′-thiomethyl-trans-stilbene]	The results indicate that thiomethyl (BML-230) was the least toxic on 293 cells.	≤ 1.4	exceeds	lower dissociation constant	Significant reduction		
O=C(/C=C/c1ccc(O)c(O)c1)c1ccc(O)cc1O [butein, 3,4,2′,4′-Tetrahydroxychalcone]						no effect	stimulate fat mobilization
